Reference: the supplement of paper PMC10627819
Values after ≈ are worked out from the molar mass of the structure shown.

Experiments:
S. aureus DSM 20231 [1] = assay: fitness (endpoint OD595 vs no drug) (fraction); higher = more growth
How it was run: (§1)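 Fitness was defined as the optical density at the transition into stationary phase relative to the robust mean of no-drug control wells. Values were capped at 1. Cultures were started at OD595 0.01 in 384-well plates (30 µl, or 55 µl for S. pneumoniae) in TSB, LB Lennox or CY at 37 °C. OD595 was recorded every 30 min over 14 h, with the first reading subtracted as background.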

S. aureus Newman [2] = assay: as above
How it was run: as §1

B. subtilis 168 [3] = assay: Bliss interaction score (quartile over a dose matrix) (fitness difference); higher = more antagonism (negative = synergy)
How it was run: (§2)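 Quartiles summarise the Bliss score over technical, biological and donor/recipient replicates, where the score is observed minus expected fitness under a product model. Expected fitness uses single-drug values inferred from combination data. Fitness is OD595 at entry into stationary phase over the plate's robust no-drug mean, capped at 1.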

S. aureus DSM 20231 [4] = assay: as above
How it was run: as §2

S. aureus Newman [5] = assay: as above
How it was run: as §2

S. pneumoniae D39V [6] = assay: as above
How it was run: as §2

B. subtilis 168 [7] = assay: fitness (endpoint OD595 vs no drug) (fraction); higher = more growth
How it was run: as §1

S. pneumoniae D39V [8] = assay: as above
How it was run: as §1

B. subtilis 168 [9] = system: B. subtilis 168
S. aureus DSM 20231 [10] = system: S. aureus DSM 20231
S. aureus Newman [11] = system: S. aureus Newman
S. pneumoniae D39V [12] = system: S. pneumoniae D39V
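Throughout, for Bliss interaction score (quartile over a dose matrix): first quartile when negative (synergy) and third quartile when positive (antagonism).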

CN[C@@H]1[C@H](O)[C@H](NC)[C@H]2O[C@@]3(O)C(=O)C[C@@H](C)O[C@H]3O[C@@H]2[C@H]1O [Spectinomycin] + CCCCCCCCCC(=O)N[C@@H]1[C@H]([C@@H]([C@H](O[C@H]1OC2=C3C=C4C=C2OC5=C(C=C(C=C5)[C@H]([C@H]6C(=O)N[C@@H](C7=C(C(=CC(=C7)O)OC8[C@H]([C@H]([C@@H]([C@H](O8)CO)O)O)O)C9=C(C=CC(=C9)[C@H](C(=O)N6)NC(=O)[C@@H]4NC(=O)[C@@H]1C2=CC(=CC(=C2)OC2=C(C=CC(=C2)[C@H](C(=O)N[C@H](CC2=CC(=C(O3)C=C2)Cl)C(=O)N1)N)O)O)O)C(=O)O)O[C@H]1[C@@H]([C@H]([C@@H]([C@H](O1)CO)O)O)NC(=O)C)Cl)CO)O)O [Teicoplanin]
fitness, main component drawn
Details	first compound 4 µg/mL	first compound 8 µg/mL	first compound 16 µg/mL
S. aureus DSM 20231 [1], partner 0.1562 µg/mL	0.938	≥ 1	0.889
S. aureus DSM 20231 [1], partner 0.3125 µg/mL	0.962	0.969	0.919
S. aureus DSM 20231 [1], partner 0.625 µg/mL	≥ 1	≥ 1	0.985
S. aureus Newman [2], partner 0.1562 µg/mL	≥ 1	≥ 1	0.993
S. aureus Newman [2], partner 0.3125 µg/mL	≥ 1	0.998	0.973
S. aureus Newman [2], partner 0.625 µg/mL	0.817	0.705	0.831

fitness, one replicate, main component drawn
Details	partner 0.1562 µg/mL	partner 0.3125 µg/mL	partner 0.62 µg/mL	partner 0.625 µg/mL	partner 1.24 µg/mL	partner 2.48 µg/mL
S. aureus DSM 20231 [1], first compound 32 µg/mL	0.788	0.834	–	0.992	–	–
S. aureus DSM 20231 [1], first compound 64 µg/mL	0.0706	0.0748	–	0.0694	–	–
S. aureus Newman [2], first compound 4 µg/mL	–	–	0.792	–	0.743	0.411
S. aureus Newman [2], first compound 8 µg/mL	–	–	0.83	–	0.68	0.505
S. aureus Newman [2], first compound 16 µg/mL	–	–	0.854	–	0.645	0.428
S. aureus Newman [2], first compound 32 µg/mL	0.639	0.694	–	0.666	–	–
S. aureus Newman [2], first compound 64 µg/mL	0.0786	0.071	–	0.0311	–	–

main component drawn
Details	Bliss interaction score
B. subtilis 168 [3]	0.138
S. aureus DSM 20231 [4]	0.0832
S. aureus Newman [5]	0.0966
S. pneumoniae D39V [6]	-0.0746

CN[C@@H]1[C@H](O)[C@H](NC)[C@H]2O[C@@]3(O)C(=O)C[C@@H](C)O[C@H]3O[C@@H]2[C@H]1O [Spectinomycin] + CN(N=O)C(=O)N[C@@H](C=O)[C@@H](O)[C@H](O)[C@H](O)CO [Streptozotocin]
fitness, one replicate
Details	partner 0.15 µg/mL	partner 0.3 µg/mL	partner 0.6 µg/mL	partner 1.2 µg/mL	partner 2.4 µg/mL	partner 4.8 µg/mL
B. subtilis 168 [7], first compound 2 µg/mL	0.961	0.958	0.991	–	–	–
B. subtilis 168 [7], first compound 4 µg/mL	≥ 1	≥ 1	≥ 1	–	–	–
B. subtilis 168 [7], first compound 8 µg/mL	0.977	0.832	0.926	–	–	–
S. aureus DSM 20231 [1], first compound 32 µg/mL	0.674	0.696	0.686	–	–	–
S. aureus DSM 20231 [1], first compound 64 µg/mL	0.0638	0.0605	0.0885	–	–	–
S. aureus Newman [2], first compound 32 µg/mL	0.519	0.423	0.0868	–	–	–
S. aureus Newman [2], first compound 64 µg/mL	0.0732	0.067	0.0303	–	–	–
S. pneumoniae D39V [8], first compound 16 µg/mL	–	–	–	0.764	0.841	0.686

fitness
Details	partner 0.15 µg/mL	partner 0.3 µg/mL	partner 0.6 µg/mL	partner 1.2 µg/mL	partner 2.4 µg/mL	partner 4.8 µg/mL
S. aureus DSM 20231 [1], first compound 4 µg/mL	0.831	0.761	0.757	–	–	–
S. aureus DSM 20231 [1], first compound 8 µg/mL	0.875	0.798	0.754	–	–	–
S. aureus DSM 20231 [1], first compound 16 µg/mL	0.769	0.781	0.722	–	–	–
S. aureus Newman [2], first compound 4 µg/mL	0.818	0.665	0.51	–	–	–
S. aureus Newman [2], first compound 8 µg/mL	0.812	0.631	0.478	–	–	–
S. aureus Newman [2], first compound 16 µg/mL	0.813	0.614	0.427	–	–	–
S. pneumoniae D39V [8], first compound 4 µg/mL	–	–	–	0.947	0.928	0.913
S. pneumoniae D39V [8], first compound 8 µg/mL	–	–	–	0.847	0.832	0.81

Details	Bliss interaction score
B. subtilis 168 [3]	-0.0285
S. aureus DSM 20231 [4]	0.0831
S. aureus Newman [5]	-0.046
S. pneumoniae D39V [6]	-0.0505

CN[C@@H]1[C@H](O)[C@H](NC)[C@H]2O[C@@]3(O)C(=O)C[C@@H](C)O[C@H]3O[C@@H]2[C@H]1O [Spectinomycin] + CN[C@H](CC(C)C)C(=O)N[C@H]1C(=O)N[C@@H](CC(N)=O)C(=O)N[C@H]2C(=O)N[C@H]3C(=O)N[C@H](C(=O)N[C@H](C(=O)O)c4cc(O)cc(O)c4-c4cc3ccc4O)[C@H](O)c3ccc(c(Cl)c3)Oc3cc2cc(c3O[C@@H]2O[C@H](CO)[C@@H](O)[C@H](O)[C@H]2O[C@H]2C[C@](C)(N)[C@H](O)[C@H](C)O2)Oc2ccc(cc2Cl)[C@H]1O [Vancomycin]
fitness
Details	first compound 4 µg/mL	first compound 8 µg/mL	first compound 16 µg/mL
S. aureus DSM 20231 [1], partner 0.1875 µg/mL	0.906	0.938	0.85
S. aureus DSM 20231 [1], partner 0.375 µg/mL	0.898	0.893	0.774
S. aureus DSM 20231 [1], partner 0.75 µg/mL	≥ 1	0.985	0.908
S. aureus Newman [2], partner 0.1875 µg/mL	0.945	0.971	0.906
S. aureus Newman [2], partner 0.375 µg/mL	0.916	0.979	0.921
S. aureus Newman [2], partner 0.75 µg/mL	0.928	0.946	0.892
S. pneumoniae D39V [8], partner 0.03125 µg/mL	0.979	0.933	0.835
S. pneumoniae D39V [8], partner 0.0625 µg/mL	0.902	0.918	0.804
S. pneumoniae D39V [8], partner 0.125 µg/mL	–	0.878	–

fitness, one replicate
Details	partner 0.1875 µg/mL	partner 0.25 µg/mL	partner 0.375 µg/mL	partner 0.5 µg/mL	partner 0.75 µg/mL
S. aureus DSM 20231 [1], first compound 32 µg/mL	0.741	–	0.74	–	0.737
S. aureus DSM 20231 [1], first compound 64 µg/mL	0.0522	–	0.0729	–	0.0868
S. aureus Newman [2], first compound 32 µg/mL	0.636	–	0.623	–	0.613
S. aureus Newman [2], first compound 64 µg/mL	0.119	–	0.071	–	0.0594
S. pneumoniae D39V [8], first compound 4 µg/mL	–	0.437	–	0.0734	–
S. pneumoniae D39V [8], first compound 8 µg/mL	–	0.293	–	0.0189	–

Details	Bliss interaction score
B. subtilis 168 [3]	0.0821
S. aureus DSM 20231 [4]	-0.059
S. aureus Newman [5]	0.0699
S. pneumoniae D39V [6]	-0.0797

CN[C@@H]1[C@H](O)[C@H](NC)[C@H]2O[C@@]3(O)C(=O)C[C@@H](C)O[C@H]3O[C@@H]2[C@H]1O [Spectinomycin] + Cn1nnc(-c2ccc(-c3ccc(N4C[C@H](CO)OC4=O)cc3F)cn2)n1 [Tedizolid]
fitness
Details	first compound 4 µg/mL	first compound 8 µg/mL	first compound 16 µg/mL
S. aureus DSM 20231 [1], partner 0.0625 µg/mL	0.964	0.916	0.744
S. aureus DSM 20231 [1], partner 0.125 µg/mL	0.657	0.678	0.641
S. aureus DSM 20231 [1], partner 0.25 µg/mL	0.257	0.225	0.199
S. aureus Newman [2], partner 0.0625 µg/mL	0.922	0.939	–
S. pneumoniae D39V [8], partner 0.03125 µg/mL	0.87	0.914	0.78
S. pneumoniae D39V [8], partner 0.0625 µg/mL	0.888	0.955	0.807
S. pneumoniae D39V [8], partner 0.125 µg/mL	0.815	0.807	0.729

fitness, one replicate
Details	partner 0.0625 µg/mL	partner 0.125 µg/mL	partner 0.25 µg/mL	partner 0.5 µg/mL
S. aureus DSM 20231 [1], first compound 32 µg/mL	0.406	0.202	0.0234	–
S. aureus DSM 20231 [1], first compound 64 µg/mL	0.0239	0.0268	0.0093	–
S. aureus Newman [2], first compound 32 µg/mL	0.101	0.0307	0.0315	–
S. aureus Newman [2], first compound 64 µg/mL	0.0254	0.023	0.0159	–
S. pneumoniae D39V [8], first compound 4 µg/mL	–	–	0.73	0.362
S. pneumoniae D39V [8], first compound 8 µg/mL	–	–	0.724	0.416

Details	Bliss interaction score
B. subtilis 168 [3]	-0.0466
S. aureus DSM 20231 [4]	0.0654
S. aureus Newman [5]	-0.111
S. pneumoniae D39V [6]	-0.0885

CN[C@@H]1[C@H](O[C@H]2[C@H](O[C@H]3[C@H](O)[C@@H](O)[C@H](N=C(N)N)[C@@H](O)[C@@H]3N=C(N)N)O[C@@H](C)[C@]2(O)C=O)O[C@@H](CO)[C@H](O)[C@H]1O [Streptomycin]
Details	MIC [µg/mL]
B. subtilis 168 [9]	8 (≈ 13.8 µM)
S. aureus DSM 20231 [10]	8 (≈ 13.8 µM)
S. aureus Newman [11]	8 (≈ 13.8 µM)
S. pneumoniae D39V [12]	8 (≈ 13.8 µM)

fitness
Details	1 µg/mL	2 µg/mL	4 µg/mL	8 µg/mL
B. subtilis 168 [7]	–	0.954	0.775	0.0378
S. aureus Newman [2]	0.971	0.954	0.899	0.579
S. pneumoniae D39V [8]	–	0.932	0.943	0.914
